Test results as given in ChEMBL document CHEMBL1201862, “PubChem BioAssay data set” (2004).
Calls of active or inactive are those of the source.

Legend:
[1] = THP-1 cell cytotoxicity, dose response, cytotoxicity control for non-replicating M. tuberculosis project (AID 489025); type: functional
Cytochrome P450 2C9 = Cytochrome P450 2C9 (Homo sapiens, UniProt P11712); conditions: Potency
Cytochrome P450 2D6 = Cytochrome P450 2D6 (Homo sapiens, UniProt P10635); assay: qHTS Assay for Inhibitors and Substrates of Cytochrome P450 2D6. [Related pubchem assays: 410 ]; type: ADME; conditions: read-out: Potency
Chain of Cytochrome P450 2D6 (P10635 whole entry): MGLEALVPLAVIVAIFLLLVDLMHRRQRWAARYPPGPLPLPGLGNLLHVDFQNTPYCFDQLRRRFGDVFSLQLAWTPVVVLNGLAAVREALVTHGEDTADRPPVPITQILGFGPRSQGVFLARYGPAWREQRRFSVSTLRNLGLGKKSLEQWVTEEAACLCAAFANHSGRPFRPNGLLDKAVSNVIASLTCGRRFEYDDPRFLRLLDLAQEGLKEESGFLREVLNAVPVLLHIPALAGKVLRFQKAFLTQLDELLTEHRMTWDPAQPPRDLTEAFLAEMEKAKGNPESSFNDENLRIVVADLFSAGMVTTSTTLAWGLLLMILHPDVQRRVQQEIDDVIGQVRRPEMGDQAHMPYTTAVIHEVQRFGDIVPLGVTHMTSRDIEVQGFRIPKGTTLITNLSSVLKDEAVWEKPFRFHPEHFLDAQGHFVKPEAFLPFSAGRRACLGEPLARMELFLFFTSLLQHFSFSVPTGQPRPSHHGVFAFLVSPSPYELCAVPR

[2] = target: Neurotensin receptor type 1 (Homo sapiens, UniProt P30989); type: functional;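 note: Image-based confirmatory dose-response assay measuring agonist activity at NTR1; NTR1-expressing U2OS osteosarcoma cells imaged for beta-arrestin GFP spot formation; agonist potency where compounds increase beta-arrestin recruitment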
Chain of Neurotensin receptor type 1 (P30989 whole entry): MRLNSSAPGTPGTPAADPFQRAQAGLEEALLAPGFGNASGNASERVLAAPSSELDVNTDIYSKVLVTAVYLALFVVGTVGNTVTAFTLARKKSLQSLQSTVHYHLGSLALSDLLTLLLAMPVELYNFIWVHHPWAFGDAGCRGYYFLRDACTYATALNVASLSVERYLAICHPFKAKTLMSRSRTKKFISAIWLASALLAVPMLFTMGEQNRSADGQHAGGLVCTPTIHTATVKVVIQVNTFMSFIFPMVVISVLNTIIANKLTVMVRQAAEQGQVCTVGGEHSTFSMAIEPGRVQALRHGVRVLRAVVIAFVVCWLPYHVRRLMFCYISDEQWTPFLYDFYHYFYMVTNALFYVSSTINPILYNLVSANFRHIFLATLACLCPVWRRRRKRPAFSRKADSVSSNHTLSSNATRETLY

[3] = target: T1, Rac GTPase-activating protein 1 (Homo sapiens, UniProt Q9H0H5); assay: MgcRacGAP GTPase-activating activity inhibitors, confirmation, biochemical, ADP Hunter fluorescence, primary and confirmatory (AID 624330); type: functional
T1 sequence (Q9H0H5 whole entry): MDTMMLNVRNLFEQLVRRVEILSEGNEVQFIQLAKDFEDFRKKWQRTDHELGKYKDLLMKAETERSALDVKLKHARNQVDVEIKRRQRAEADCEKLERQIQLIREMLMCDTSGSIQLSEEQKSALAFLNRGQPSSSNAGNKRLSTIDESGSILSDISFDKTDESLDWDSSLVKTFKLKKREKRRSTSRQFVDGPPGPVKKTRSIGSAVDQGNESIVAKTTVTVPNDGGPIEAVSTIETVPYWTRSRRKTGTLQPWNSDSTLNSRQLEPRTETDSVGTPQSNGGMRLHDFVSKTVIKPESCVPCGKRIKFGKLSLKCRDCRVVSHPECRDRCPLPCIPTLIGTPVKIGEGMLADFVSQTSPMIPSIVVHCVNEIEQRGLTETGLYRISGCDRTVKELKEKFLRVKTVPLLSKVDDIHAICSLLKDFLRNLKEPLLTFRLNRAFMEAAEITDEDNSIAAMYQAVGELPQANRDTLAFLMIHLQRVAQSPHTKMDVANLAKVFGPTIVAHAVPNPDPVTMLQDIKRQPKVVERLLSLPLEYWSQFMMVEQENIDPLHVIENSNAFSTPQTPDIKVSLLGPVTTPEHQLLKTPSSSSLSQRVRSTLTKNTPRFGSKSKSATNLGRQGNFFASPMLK

[4] = target: Cyclin-dependent kinase 5/CDK5 activator 1 (Homo sapiens, UniProt Q00535); assay: CDK5/p35 kinase inhibitors, dose response, biochemical, cherry-picked samples, set 2 (AID 504545)
Chain of Cyclin-dependent kinase 5/CDK5 activator 1 (Q00535 whole entry): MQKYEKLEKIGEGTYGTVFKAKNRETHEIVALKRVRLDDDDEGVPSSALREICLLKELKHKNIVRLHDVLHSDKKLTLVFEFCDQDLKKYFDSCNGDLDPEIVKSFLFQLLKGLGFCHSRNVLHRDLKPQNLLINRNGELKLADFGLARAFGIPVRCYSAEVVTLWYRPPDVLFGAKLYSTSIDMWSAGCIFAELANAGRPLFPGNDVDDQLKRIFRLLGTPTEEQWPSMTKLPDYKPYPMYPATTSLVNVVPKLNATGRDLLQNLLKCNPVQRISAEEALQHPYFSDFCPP
Chain of Cyclin-dependent kinase 5/CDK5 activator 1 (Q15078 whole entry, further chain): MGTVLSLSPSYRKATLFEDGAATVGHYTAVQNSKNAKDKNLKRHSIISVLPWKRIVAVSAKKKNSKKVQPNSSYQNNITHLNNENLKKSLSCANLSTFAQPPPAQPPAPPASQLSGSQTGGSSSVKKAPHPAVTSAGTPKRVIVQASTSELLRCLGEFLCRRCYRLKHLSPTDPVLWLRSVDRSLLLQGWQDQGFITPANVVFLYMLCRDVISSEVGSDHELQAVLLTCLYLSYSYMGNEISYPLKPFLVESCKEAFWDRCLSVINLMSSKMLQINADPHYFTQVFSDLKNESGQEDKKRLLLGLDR

[5] = microbe, parasite or virus in culture; type: functional; conditions: Mycobacterium tuberculosis
[6] = target: T2, Microphthalmia-associated transcription factor (Homo sapiens, UniProt O75030); assay: TRPM1 promoter luciferase signal decrease, dose response, MITF inhibitor project, cell-based, SK-MEL-5, cherry-picked, set 3 (AID 493073); type: functional
T2 sequence (O75030 whole entry): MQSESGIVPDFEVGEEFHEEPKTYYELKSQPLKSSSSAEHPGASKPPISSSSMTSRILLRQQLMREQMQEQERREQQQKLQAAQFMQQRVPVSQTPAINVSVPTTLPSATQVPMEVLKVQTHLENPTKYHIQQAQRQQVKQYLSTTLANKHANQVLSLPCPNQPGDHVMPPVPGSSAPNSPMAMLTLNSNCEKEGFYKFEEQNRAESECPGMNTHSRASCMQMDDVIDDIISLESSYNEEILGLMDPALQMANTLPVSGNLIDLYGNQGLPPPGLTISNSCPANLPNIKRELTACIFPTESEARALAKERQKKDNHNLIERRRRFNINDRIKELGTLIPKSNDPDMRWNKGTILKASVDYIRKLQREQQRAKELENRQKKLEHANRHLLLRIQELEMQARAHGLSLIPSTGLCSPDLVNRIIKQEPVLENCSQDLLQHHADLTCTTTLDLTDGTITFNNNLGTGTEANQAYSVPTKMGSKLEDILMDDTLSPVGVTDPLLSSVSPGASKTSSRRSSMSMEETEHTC

[7] = cytotoxicity in HEK-293T cells, dose response, cytotoxicity control for BCR NF-kB inhibitor project, luminescence, B-cell screen hits (AID 489021); type: functional, cell-based;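 note: HEK-293T cells carrying an NF-kB luciferase reporter; cells exposed to compound for about 14 hours before viability readout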
[8] = target: Acyl-homoserine lactone acylase PvdQ (Pseudomonas aeruginosa (strain LESB58), UniProt Q9I194); assay: P. aeruginosa PvdQ acylase inhibitors, dose response, biochemical, fluorescence, plate reader and imaging, cherry-picks (AID 493231)
Chain of Acyl-homoserine lactone acylase PvdQ (Q9I194 24-193 limits assumed): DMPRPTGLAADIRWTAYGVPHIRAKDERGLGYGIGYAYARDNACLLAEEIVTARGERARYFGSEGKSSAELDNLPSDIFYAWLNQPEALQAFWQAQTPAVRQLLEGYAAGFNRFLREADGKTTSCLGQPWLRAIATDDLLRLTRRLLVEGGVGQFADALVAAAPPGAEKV
Chain of Acyl-homoserine lactone acylase PvdQ (Q9I194 217-762 limits assumed): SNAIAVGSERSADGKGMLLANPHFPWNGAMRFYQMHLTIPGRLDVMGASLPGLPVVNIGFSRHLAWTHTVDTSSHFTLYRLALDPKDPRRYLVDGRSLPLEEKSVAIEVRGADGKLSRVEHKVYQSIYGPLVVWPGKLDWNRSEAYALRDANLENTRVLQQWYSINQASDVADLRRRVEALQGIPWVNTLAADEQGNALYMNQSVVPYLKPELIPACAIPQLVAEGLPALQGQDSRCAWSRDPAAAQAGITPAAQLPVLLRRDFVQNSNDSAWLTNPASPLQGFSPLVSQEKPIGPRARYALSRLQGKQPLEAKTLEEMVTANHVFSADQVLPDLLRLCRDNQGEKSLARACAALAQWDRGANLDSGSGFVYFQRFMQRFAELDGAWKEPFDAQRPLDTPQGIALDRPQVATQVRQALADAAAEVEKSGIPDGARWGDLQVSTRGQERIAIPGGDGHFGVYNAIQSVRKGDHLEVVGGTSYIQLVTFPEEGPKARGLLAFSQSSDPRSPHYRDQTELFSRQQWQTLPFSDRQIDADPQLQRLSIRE

[9] = target: Eukaryotic translation initiation factor 4H (Homo sapiens, UniProt Q15056); assay: eIF4H inhibition in translation initiation, SAR follow-up (AID 435011); type: functional
[10] = target: T3, Polyadenylate-binding protein 1 (Homo sapiens, UniProt P11940); assay: PABP inhibition in translation initiation, SAR follow-up (AID 435018); type: functional
T3 sequence (P11940 whole entry): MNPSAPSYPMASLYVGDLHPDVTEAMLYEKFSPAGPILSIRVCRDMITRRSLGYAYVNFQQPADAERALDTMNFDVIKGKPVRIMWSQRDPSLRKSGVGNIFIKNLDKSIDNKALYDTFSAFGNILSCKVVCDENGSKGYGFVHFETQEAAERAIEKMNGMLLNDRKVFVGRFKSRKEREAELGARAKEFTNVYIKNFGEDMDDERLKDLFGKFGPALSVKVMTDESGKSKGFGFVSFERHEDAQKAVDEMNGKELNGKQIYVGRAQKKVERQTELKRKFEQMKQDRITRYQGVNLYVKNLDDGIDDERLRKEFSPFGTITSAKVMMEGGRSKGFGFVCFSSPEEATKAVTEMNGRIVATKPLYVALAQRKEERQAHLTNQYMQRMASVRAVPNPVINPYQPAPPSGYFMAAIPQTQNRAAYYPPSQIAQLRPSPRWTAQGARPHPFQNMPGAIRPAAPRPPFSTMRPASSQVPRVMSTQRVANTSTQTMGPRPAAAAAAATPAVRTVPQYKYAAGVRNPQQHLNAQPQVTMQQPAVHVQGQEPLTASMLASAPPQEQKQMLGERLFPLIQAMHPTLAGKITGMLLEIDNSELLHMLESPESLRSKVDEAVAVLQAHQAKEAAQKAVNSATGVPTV

[11] = Luminescence Cell-Based Dose Response HTS to Identify Activators of Luciferase Translation or Activity in H4-C Neuroglioblastoma Cells. [Related pubchem assays: 1829 (Project Summary), 1814 (Primary HTS)]; type: functional
[12] = Luminescence Cell-Based Dose Retest to Confirm Activators of 5'UTR Stem-Loop Driven Alpha-Synuclein mRNA Translation in H4 Neuroglioblastoma Cells. [Related pubchem assays (depositor defined):AID1813, AID1829]; type: functional
[13] = Luminescence Cell-Based Dose Response HTS to Identify Activators of 5'UTR Stem-Loop Driven Prion Protein mRNA Translation in H4-C Neuroglioblastoma Cells. [Related pubchem assays: 1829 (Project Summary), 1814 (Primary HTS)]; type: functional
[14] = Luminescence Cell-Based Dose Confirmation HTS to Identify Activators of 5'UTR Stem-Loop Driven Alpha-Synuclein mRNA Translation in H4 Neuroglioblastoma Cells. [Related pubchem assays: 1829 (Project Summary), 1814 (Primary HTS)]; type: functional
[15] = Luminescence Cell-Based Dose Response HTS to Identify Activators of Luciferase Translation or Activity in H4 […] Cells. [Related pubchem assays: 1829 (Project Summary), 1814 (Primary HTS)]; type: functional
H4 = assay: Luminescence Cell-Based Dose Response HTS to Identify Activators of 5'UTR Stem-Loop Driven Prion Protein mRNA Translation in H4 Neuroglioblastoma Cells. [Related pubchem assays: 1829 (Project Summary), 1814 (Primary HTS)]; type: functional; conditions: Homo sapiens
[16] = target: T4, Heat shock factor protein 1 (Mus musculus, UniProt P38532); assay: HSF1 potentiators in luciferase reporter cells, confirmation, cell-based, NIH3T3, luminescence, dose retest (AID 435004); type: functional;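 note: stress induced by proteasome inhibitor MG132 added 30 min after compound; luciferase reporter driven by HSF1 response element in NIH3T3 cells; actives raise luminescence as potentiators of the MG132 stress response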
T4 sequence (P38532 whole entry): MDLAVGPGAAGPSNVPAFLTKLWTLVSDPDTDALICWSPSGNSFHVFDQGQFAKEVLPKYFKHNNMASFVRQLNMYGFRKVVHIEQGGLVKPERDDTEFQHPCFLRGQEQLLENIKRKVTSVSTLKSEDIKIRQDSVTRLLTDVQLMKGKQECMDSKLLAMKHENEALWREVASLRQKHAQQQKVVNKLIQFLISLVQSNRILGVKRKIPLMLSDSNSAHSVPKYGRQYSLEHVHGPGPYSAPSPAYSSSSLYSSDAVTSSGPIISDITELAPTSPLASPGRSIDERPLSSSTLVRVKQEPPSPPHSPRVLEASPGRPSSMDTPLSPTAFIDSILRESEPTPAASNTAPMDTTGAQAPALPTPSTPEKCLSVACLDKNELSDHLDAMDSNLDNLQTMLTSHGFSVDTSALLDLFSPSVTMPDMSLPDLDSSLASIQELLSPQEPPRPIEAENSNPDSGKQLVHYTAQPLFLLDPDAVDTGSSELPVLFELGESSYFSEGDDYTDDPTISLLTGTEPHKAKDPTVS

HeLa = assay: HeLa cell cytotoxicity, dose response, cytotoxicity control, 24 h, cherry-picked samples (AID 504726); type: functional, cell-based; conditions: Homo sapiens;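 note: potency for cytotoxicity as loss of luminescence signal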
Caspase-6 = target: T5, Caspase-6 (Homo sapiens, UniProt P55212); assay: human caspase-6 inhibitors, dose response, biochemical, VEID-R110 fluorescence, cherry-pick (AID 720632)
T5 sequence (P55212 whole entry): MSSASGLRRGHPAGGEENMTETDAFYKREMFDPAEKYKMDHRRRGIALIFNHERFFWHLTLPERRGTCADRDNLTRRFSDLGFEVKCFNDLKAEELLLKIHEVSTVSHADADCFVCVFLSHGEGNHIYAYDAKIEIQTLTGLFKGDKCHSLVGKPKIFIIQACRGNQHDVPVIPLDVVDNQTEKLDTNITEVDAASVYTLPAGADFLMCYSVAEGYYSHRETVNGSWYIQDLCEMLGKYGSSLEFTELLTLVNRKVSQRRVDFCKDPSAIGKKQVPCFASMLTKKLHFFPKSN

cells = type: functional
[17] = target: T3, Polyadenylate-binding protein 1; assay: PABP1 MLLE–PAM2 interaction inhibitors, dose response, miRNA deadenylation inhibitor project, biochemical, fluorescence polarization, Cy5-PAM2 peptide, secondary (AID 602260); type: functional; conditions: read-out: IC50_Mean
[18] = target: T3, Polyadenylate-binding protein 1; assay: PABP1 MLLE–PAM2 binding inhibitor potency, dose response, biochemical, fluorescence polarization, FITC-PAM2 peptide (AID 602259); type: functional; conditions: read-out: IC50_Mean
[19] = target: T6, Kappa-type opioid receptor (Homo sapiens, UniProt P41145); type: functional
T6 sequence (P41145 whole entry): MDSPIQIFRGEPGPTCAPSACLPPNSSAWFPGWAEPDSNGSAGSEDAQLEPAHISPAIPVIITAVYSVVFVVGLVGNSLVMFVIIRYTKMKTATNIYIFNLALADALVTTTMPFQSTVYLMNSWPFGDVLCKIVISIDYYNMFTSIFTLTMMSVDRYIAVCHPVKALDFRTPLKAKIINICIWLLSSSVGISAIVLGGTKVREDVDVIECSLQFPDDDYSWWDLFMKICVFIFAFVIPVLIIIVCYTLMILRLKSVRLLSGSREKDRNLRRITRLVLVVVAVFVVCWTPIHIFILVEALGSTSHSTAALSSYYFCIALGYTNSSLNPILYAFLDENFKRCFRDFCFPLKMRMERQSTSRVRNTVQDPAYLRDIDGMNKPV

Beta-galactosidase = Beta-galactosidase (Escherichia coli, UniProt Q8VNN2); type: functional
Chain of Beta-galactosidase (Q8VNN2 whole entry): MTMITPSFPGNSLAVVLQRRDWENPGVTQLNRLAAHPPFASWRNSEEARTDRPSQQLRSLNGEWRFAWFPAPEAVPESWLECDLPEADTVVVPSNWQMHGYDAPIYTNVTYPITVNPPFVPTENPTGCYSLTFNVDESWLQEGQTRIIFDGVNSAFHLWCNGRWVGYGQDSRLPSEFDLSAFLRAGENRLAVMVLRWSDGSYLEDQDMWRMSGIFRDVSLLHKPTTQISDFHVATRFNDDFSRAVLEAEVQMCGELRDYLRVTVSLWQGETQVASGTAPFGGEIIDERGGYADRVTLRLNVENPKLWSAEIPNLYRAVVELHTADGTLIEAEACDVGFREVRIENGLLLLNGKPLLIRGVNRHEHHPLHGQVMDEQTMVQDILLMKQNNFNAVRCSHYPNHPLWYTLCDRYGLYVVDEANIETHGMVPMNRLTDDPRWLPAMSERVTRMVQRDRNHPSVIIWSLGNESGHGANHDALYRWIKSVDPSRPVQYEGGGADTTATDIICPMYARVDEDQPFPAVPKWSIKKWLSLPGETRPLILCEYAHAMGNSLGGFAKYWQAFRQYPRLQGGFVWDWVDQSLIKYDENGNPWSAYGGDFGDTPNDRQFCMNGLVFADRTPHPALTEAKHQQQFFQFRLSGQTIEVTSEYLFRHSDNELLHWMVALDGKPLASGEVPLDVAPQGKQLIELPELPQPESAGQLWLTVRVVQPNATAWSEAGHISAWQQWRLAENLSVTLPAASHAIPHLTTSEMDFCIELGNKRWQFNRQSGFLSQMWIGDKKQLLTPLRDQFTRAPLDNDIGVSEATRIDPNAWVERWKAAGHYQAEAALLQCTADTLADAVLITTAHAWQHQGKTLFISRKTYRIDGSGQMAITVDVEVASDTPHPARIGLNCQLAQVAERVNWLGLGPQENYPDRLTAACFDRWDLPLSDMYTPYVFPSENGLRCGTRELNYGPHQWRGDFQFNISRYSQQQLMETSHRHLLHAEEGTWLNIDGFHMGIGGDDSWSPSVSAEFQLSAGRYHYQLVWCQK

[20] = target: T6, Kappa-type opioid receptor; type: functional; remark: listed apart in the source
[21] = Luminescence Cell-Based Dose Retest to Confirm Inhibitors of Cancer Stem Cells. [Related pubchem assays (depositor defined):AID2717, AID2721]; type: functional; conditions: Homo sapiens
Aspartyl aminopeptidase = target: T7, Aspartyl aminopeptidase (Plasmodium falciparum 3D7, UniProt Q8I2J3)
T7 sequence (Q8I2J3 whole entry): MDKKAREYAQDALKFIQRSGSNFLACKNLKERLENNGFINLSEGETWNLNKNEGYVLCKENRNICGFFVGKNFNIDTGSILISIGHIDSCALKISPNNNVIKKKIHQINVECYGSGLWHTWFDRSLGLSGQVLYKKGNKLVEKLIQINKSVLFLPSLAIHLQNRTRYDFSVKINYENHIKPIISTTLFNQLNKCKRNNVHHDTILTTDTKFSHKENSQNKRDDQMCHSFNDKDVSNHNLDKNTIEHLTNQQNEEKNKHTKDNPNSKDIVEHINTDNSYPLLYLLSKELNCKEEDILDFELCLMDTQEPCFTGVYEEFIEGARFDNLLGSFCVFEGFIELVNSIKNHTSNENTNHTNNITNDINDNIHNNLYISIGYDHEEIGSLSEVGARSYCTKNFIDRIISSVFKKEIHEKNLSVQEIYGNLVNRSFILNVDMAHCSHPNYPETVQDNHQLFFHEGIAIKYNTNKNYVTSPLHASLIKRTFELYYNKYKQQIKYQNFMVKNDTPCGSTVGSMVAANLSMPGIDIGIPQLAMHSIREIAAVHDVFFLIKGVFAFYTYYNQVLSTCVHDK

Procathepsin L = Procathepsin L (Homo sapiens, UniProt P07711)
[22] = inhibitors of firefly luciferase expression or activity, dose response, H4 neuroglioma cells, luminescence (AID 1990); type: functional, cell-based
[23] = Luminescence Cell-Based Dose Response HTS to Identify Inhibitors of 5'UTR Stem-Loop Driven Prion Protein mRNA Translation in H4 Neuroglioblastoma Cells. [Related pubchem assays: 1827 (Project Summary), 1813 (Primary HTS)]; type: functional

Chain of Cytochrome P450 2C9 (P11712 whole entry): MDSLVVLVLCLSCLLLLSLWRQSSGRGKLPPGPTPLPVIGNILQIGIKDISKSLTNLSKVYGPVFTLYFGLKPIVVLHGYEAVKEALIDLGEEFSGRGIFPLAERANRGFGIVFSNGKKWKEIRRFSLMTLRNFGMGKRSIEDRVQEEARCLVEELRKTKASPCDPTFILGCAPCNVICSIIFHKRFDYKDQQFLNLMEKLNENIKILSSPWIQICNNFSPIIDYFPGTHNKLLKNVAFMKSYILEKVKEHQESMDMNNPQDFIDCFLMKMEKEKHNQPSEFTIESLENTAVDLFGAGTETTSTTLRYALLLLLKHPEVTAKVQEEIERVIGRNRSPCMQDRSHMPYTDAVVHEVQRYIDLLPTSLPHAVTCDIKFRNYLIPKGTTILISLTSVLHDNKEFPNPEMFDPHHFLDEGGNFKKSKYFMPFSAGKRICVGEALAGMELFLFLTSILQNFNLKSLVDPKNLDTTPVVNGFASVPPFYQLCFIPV

Cc1ccc(O)c(C(=O)c2cc(C#N)c(=O)n(-c3nccs3)c2)c1
CC50 [1]: 29.6 µM (active)

CCOC(=O)OCC1OC(C#Cc2ccc(C(C)(C)C)cc2)C=CC1OC(=O)OCC (stereo not drawn)
AC50 (Cytochrome P450 2C9): 0.0025 µM (inconclusive)

CC(C)C[C@@H](CC(=O)N[C@H](CC(=O)N[C@@H]1CCNC[C@H]1C(=O)N[C@H](CC(=O)N[C@@H](CCC(=O)O)CC(=O)O)CC(C)C)C(C)C)NC(=O)[C@@H]1CCCC[C@H]1N
AC50 (Cytochrome P450 2D6): 39.8 µM (inconclusive) | AC50 (Cytochrome P450 2C9): 39.8 µM (inconclusive)

O=C(COc1ccccc1)NCC(=O)N/N=C/c1ccc(O)cc1O
EC50 [2]: > 40 µM (inactive) | IC50 [3]: 69.4 µM (active)

COc1cc2ccccc2ccc1=NO
AC50 [4]: 34.7 µM (active)

O=[N+]([O-])c1ccc(Sc2cc[n+]([O-])c3ccccc23)c([N+](=O)[O-])c1
CC50 [5]: 12.1 µM (active) | AC50 [6]: 5.92 µM (active) | IC50 [7]: > 80 µM (inactive)

CO/N=C/c1cn(-c2ccc(Cl)cc2)nn1
AC50 [8]: 5.97 µM (active)

COC(=O)c1[nH]c2ccccc2c1Sc1ccccc1
IC50 [9]: > 100 µM (inactive) | IC50 [10]: > 100 µM (inactive)

Cc1csc2nc(CCNS(=O)(=O)c3cccs3)cn12
EC50 [11]: 3.07 µM (active) | EC50 [12]: 1.85 µM (active) | EC50 [13]: 13.1 µM (active) | EC50 [14]: 2.18 µM (active) | EC50 [15]: 45.9 µM (active) | EC50 (H4): 96.8 µM (active) | EC50 [16]: 254 µM (active)

O=C(COC(=O)c1ccc([N+](=O)[O-])o1)NCCCc1ccccc1
AC50 (HeLa): > 350 µM (inactive) | AC50 (Caspase-6): 35.2 µM (active)

CCOCC(=O)Nc1nc2ccc(C)cc2s1
AC50 [8]: 24 µM (active) | IC50 (cells): 34.5 µM (active) | IC50 [17]: > 66 µM (inactive) | IC50 [18]: > 66 µM (inactive)

COc1ccc(C)c(-n2c(=O)n(Cc3ccccc3)c(=O)c3[nH]cnc32)c1
IC50 [19]: 6.84 µM (active) | EC50 (Beta-galactosidase): 9.23 µM (active) | IC50 [20]: > 32 µM

O=C(Oc1ccc(Br)cc1C(=O)/C=C/c1ccccc1F)c1ccco1
AC50 [21]: 5.03 µM (active) | EC50 [2]: 15.9 µM (active)

Nc1nc(Nc2ccccc2)nc(NCCO)c1[N+](=O)[O-]
AC50 [4]: 17.5 µM (active)

O=C(NCCc1ccc(O)c(O)c1)C1COc2ccccc2O1 (stereo not drawn)
IC50 (Aspartyl aminopeptidase): 2.11 µM (active) | IC50 (Procathepsin L): > 59.6 µM (not active) | EC50 [16]: 28.5 µM (active)

Cc1nc2cc(-c3ccccc3)nn2c(C)c1CCC(=O)NCc1ccco1
EC50 [22]: 17.6 µM (active) | EC50 [23]: 9.65 µM (active) | IC50 [7]: > 80 µM (inactive)
